Where “and” joins values, the source holds several entries; their conditions need not be identical. Equal values may be shown once. Toxic doses and inconclusive results are not listed.
Tested on: BDF1 mice, P388 leukemia ip, median survival T/C
Assay: NCI In Vivo Anticancer Drug Screen. Data for tumor model P388 Leukemia (intraperitoneal) in B6D2F1 (BDF1) mice
Conditions: endpoint: median survival time, higher = longer survival
In short: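 Read-out is survival of treated animals expressed relative to the vehicle group, as a T/C ratio.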

[1] = dose: 50.0 mg/kg/injection, schedule: Q04DX003 (ip), vehicle: saline with Tween-80
[2] = dose: 100.0 mg/kg/injection, schedule: Q04DX003 (ip), vehicle: saline with Tween-80
[3] = dose: 200.0 mg/kg/injection, schedule: Q04DX003 (ip), vehicle: saline with Tween-80
[4] = dose: 100.0 mg/kg/injection, schedule: Q04DX003 (ip), vehicle: saline
[5] = dose: 100.0 mg/kg/injection, schedule: Q04DX003 (ip), vehicle: Klucel (hydroxypropylcellulose) (HPC)
[6] = dose: 200.0 mg/kg/injection, schedule: Q04DX003 (ip), vehicle: Klucel (hydroxypropylcellulose) (HPC)
[7] = dose: 50.0 mg/kg/injection, schedule: Q01DX009 (ip), vehicle: saline with Tween-80
[8] = dose: 100.0 mg/kg/injection, schedule: Q01DX009 (ip), vehicle: saline with Tween-80
[9] = dose: 50.0 mg/kg/injection, schedule: Q01DX005 (ip), vehicle: saline with Tween-80
[10] = dose: 100.0 mg/kg/injection, schedule: Q01DX005 (ip), vehicle: saline with Tween-80
[11] = dose: 200.0 mg/kg/injection, schedule: Q01DX005 (ip), vehicle: saline with Tween-80
[12] = dose: 400.0 mg/kg/injection, schedule: Q04DX003 (ip), vehicle: saline with Tween-80
[13] = dose: 200.0 mg/kg/injection, schedule: Q01DX009 (ip), vehicle: saline with Tween-80
[14] = dose: 400.0 mg/kg/injection, schedule: Q01DX009 (ip), vehicle: saline with Tween-80

O=c1c2ccccc2sc2c(CO)ccc(NCCN3CCCCC3)c12
T/C [1]: 101 % of control
T/C [2]: 101 % of control
T/C (dose: 176.0 mg/kg/injection, schedule: Q04DX003 (ip), vehicle: saline with Tween-80): 115 % of control
T/C [3]: 110 % of control
T/C (dose: 264.0 mg/kg/injection, schedule: Q04DX003 (ip), vehicle: saline with Tween-80): 123 % of control
T/C (dose: 600.0 mg/kg/injection, schedule: Q04DX003 (ip), vehicle: saline with Tween-80): 180 % of control

C#CCSc1ncnc2nc[nH]c12
T/C [4]: 100 % of control
T/C (dose: 200.0 mg/kg/injection, schedule: Q04DX003 (ip), vehicle: saline): 100 % of control

CC1CN1P(=O)(N1CC=CCC1)N1CC1C (stereo unspecified)
T/C (dose: 9.38 mg/kg/injection, schedule: Q01DX009 (ip), vehicle: saline): 112 % of control
T/C (dose: 18.7 mg/kg/injection, schedule: Q01DX009 (ip), vehicle: saline): 116 % of control
T/C (dose: 50.0 mg/kg/injection, schedule: Q01DX009 (ip), vehicle: saline): 162 % of control
T/C (dose: 75.0 mg/kg/injection, schedule: Q01DX009 (ip), vehicle: saline): 91 % of control
T/C [4]: 107 % of control

CC(=O)OC1CC2(O)C(CCC3(C)C(c4ccc(=O)oc4)CCC32O)C2(C)C1=CC(O)C1OC12 (stereo unspecified)
T/C (dose: 0.05 mg/kg/injection, schedule: Q01DX010 (ip), vehicle: carboxymethylcellulose (CMC)): 105 % of control
T/C (dose: 0.1 mg/kg/injection, schedule: Q01DX010 (ip), vehicle: carboxymethylcellulose (CMC)): 95 % of control
T/C (dose: 0.2 mg/kg/injection, schedule: Q01DX010 (ip), vehicle: carboxymethylcellulose (CMC)): 105 % of control
T/C (dose: 0.5 mg/kg/injection, schedule: Q01DX010 (ip), vehicle: carboxymethylcellulose (CMC)): 90 % of control

C=C(C)C(=O)/C(=C/C(=O)O)OC
T/C (dose: 12.5 mg/kg/injection, schedule: Q01DX010 (ip), vehicle: saline): 113 % of control
T/C (dose: 25.0 mg/kg/injection, schedule: Q01DX010 (ip), vehicle: saline): 109 % of control
T/C (dose: 50.0 mg/kg/injection, schedule: Q01DX010 (ip), vehicle: saline): 118 % of control

ClC(Cl)(Cl)c1cccc(C(Cl)(Cl)Cl)c1
T/C [5]: 115 % of control
T/C [6]: 120 % of control
T/C (dose: 266.0 mg/kg/injection, schedule: Q04DX003 (ip), vehicle: Klucel (hydroxypropylcellulose) (HPC)): 90 % of control

CCCCCCCCCCCCOP(N)(=O)OCCCCCCCCCCCC
T/C (dose: 10.0 mg/kg/injection, schedule: Q01DX009 (ip), vehicle: Klucel (hydroxypropylcellulose) (HPC)): 103 % of control
T/C (dose: 20.0 mg/kg/injection, schedule: Q01DX009 (ip), vehicle: Klucel (hydroxypropylcellulose) (HPC)): 106 % of control
T/C (dose: 40.0 mg/kg/injection, schedule: Q01DX009 (ip), vehicle: Klucel (hydroxypropylcellulose) (HPC)): 106 % of control
T/C [7]: 109 % of control
T/C [8]: 113 % of control
T/C [5]: 105 % of control
T/C [2]: 109 % of control
T/C [6]: 97 % of control
T/C [3]: 109 % of control
T/C (dose: 400.0 mg/kg/injection, schedule: Q04DX003 (ip), vehicle: Klucel (hydroxypropylcellulose) (HPC)): 121 % of control

COc1cc([C@@H]2c3cc4c(cc3[C@@H](OC3OC5COC(C)OC5C(O)C3O)[C@H]3COC(=O)[C@H]23)OCO4)cc(OC)c1O (stereo partly specified)
T/C (dose: 7.48 mg/kg/injection, schedule: Q04DX003 (ip), vehicle: other): 225 % of control
T/C (dose: 11.8 mg/kg/injection, schedule: Q04DX003 (ip), vehicle: Klucel (hydroxypropylcellulose) (HPC)): 533 % of control
T/C (dose: 11.8 mg/kg/injection, schedule: Q04DX003 (ip), vehicle: saline): 170 % of control
T/C (dose: 12.0 mg/kg/injection, schedule: Q04DX003 (ip), vehicle: saline): 287 % of control
T/C (dose: 12.5 mg/kg/injection, schedule: Q04DX003 (ip), vehicle: other): 266 % of control
T/C (dose: 17.8 mg/kg/injection, schedule: Q04DX003 (ip), vehicle: Klucel (hydroxypropylcellulose) (HPC)): 535 % of control
T/C (dose: 17.8 mg/kg/injection, schedule: Q04DX003 (ip), vehicle: saline): 200 % of control
T/C (dose: 18.0 mg/kg/injection, schedule: Q04DX003 (ip), vehicle: Klucel (hydroxypropylcellulose) (HPC)): 476 % of control
T/C (dose: 18.0 mg/kg/injection, schedule: Q04DX003 (ip), vehicle: saline): 548 % of control
T/C (dose: 22.08 mg/kg/injection, schedule: Q04DX003 (ip), vehicle: other): 490 % of control
T/C (dose: 27.0 mg/kg/injection, schedule: Q04DX003 (ip), vehicle: Klucel (hydroxypropylcellulose) (HPC)): 535 % of control
T/C (dose: 27.0 mg/kg/injection, schedule: Q04DX003 (ip), vehicle: saline): 550 % of control and 222 % of control
T/C (dose: 30.0 mg/kg/injection, schedule: Q04DX003 (ip), vehicle: Klucel (hydroxypropylcellulose) (HPC)): 242 % of control
T/C (dose: 34.6 mg/kg/injection, schedule: Q04DX003 (ip), vehicle: other): 491 % of control
T/C (dose: 40.0 mg/kg/injection, schedule: Q04DX003 (ip), vehicle: saline): 550 % of control
T/C (dose: 40.5 mg/kg/injection, schedule: Q04DX003 (ip), vehicle: Klucel (hydroxypropylcellulose) (HPC)): 535 % of control
T/C (dose: 40.5 mg/kg/injection, schedule: Q04DX003 (ip), vehicle: saline): 300 % of control
T/C (dose: 60.0 mg/kg/injection, schedule: Q04DX003 (ip), vehicle: saline): 202 % of control

NC(=O)C(N)=O
T/C (dose: 100.0 mg/kg/injection, schedule: Q01DX009 (ip), vehicle: Klucel (hydroxypropylcellulose) (HPC)): 103 % of control
T/C (dose: 200.0 mg/kg/injection, schedule: Q01DX009 (ip), vehicle: Klucel (hydroxypropylcellulose) (HPC)): 93 % of control
T/C (dose: 400.0 mg/kg/injection, schedule: Q01DX009 (ip), vehicle: Klucel (hydroxypropylcellulose) (HPC)): 109 % of control

Cc1cc(Cl)nc(Cl)c1C(N)=O
T/C [9]: 100 % of control
T/C [10]: 100 % of control
T/C [11]: 100 % of control

CC1(C)O[C@@H]2C[C@H]3[C@@H]4CCC5=CC(=O)CC[C@]5(C)[C@@]4(F)[C@@H](O)C[C@]3(C)[C@]2(C(=O)CO)O1
T/C [2]: 108 % of control
T/C [3]: 108 % of control
T/C [12]: 100 % of control

CC(=Nc1ccccc1)C1=C(O)C(Cc2ccc(O)cc2)NC1=O (stereo unspecified)
T/C [7]: 110 % of control
T/C [8]: 101 % of control

CCNC(C)(C)C(=O)c1ccc(Cl)s1
T/C (dose: 25.0 mg/kg/injection, schedule: Q01DX009 (ip), vehicle: saline with Tween-80): 98 % of control
T/C [7]: 91 % of control
T/C [1]: 99 % of control
T/C [8]: 96 % of control
T/C [2]: 86 % of control and 109 % of control
T/C [3]: 89 % of control and 104 % of control
T/C [12]: 95 % of control and 96 % of control

S=c1nc[nH]c2c1ccc1[nH]cnc12
T/C (dose: 12.5 mg/kg/injection, schedule: Q01DX005 (ip), vehicle: saline with Tween-80): 99 % of control
T/C (dose: 25.0 mg/kg/injection, schedule: Q01DX005 (ip), vehicle: saline with Tween-80): 100 % of control
T/C [9]: 99 % of control and 107 % of control
T/C [10]: 90 % of control
T/C [11]: 104 % of control

CCOC(=O)CCN(CC(=O)OCC)C(C)C
T/C [8]: 104 % of control
T/C [2]: 95 % of control
T/C [13]: 104 % of control
T/C [3]: 104 % of control
T/C [14]: 109 % of control
T/C [12]: 95 % of control

COc1cc(C=Nc2ccc3c(c2)Cc2ccccc2-3)ccc1O
T/C (dose: 50.0 mg/kg/injection, schedule: Q04DX003 (ip), vehicle: saline sonified): 104 % of control
T/C (dose: 200.0 mg/kg/injection, schedule: Q04DX003 (ip), vehicle: saline sonified): 95 % of control

Cc1nc2[nH]c(=O)ccc2c(C)c1N
T/C (dose: 100.0 mg/kg/injection, schedule: Q04DX002 (ip), vehicle: saline with Tween-80): 92 % of control

CC1(CO)C(O)CCC2(C)C1CCC1CC3CC12CCC3(O)CO (stereo unspecified)
T/C (dose: 75.0 mg/kg/injection, schedule: Q01DX009 (ip), vehicle: saline with Tween-80): 155 % of control
T/C (dose: 150.0 mg/kg/injection, schedule: Q01DX009 (ip), vehicle: saline with Tween-80): 155 % of control

COc1ccc2nc3cc(Cl)ccc3c(Cl)c2c1
T/C [8]: 95 % of control
T/C [2]: 109 % of control
T/C [13]: 95 % of control
T/C [3]: 100 % of control
T/C [14]: 95 % of control
T/C [12]: 109 % of control
